Results reported in paper PMC9011347, “Small-Molecule Inhibitors Targeting Lipolysis in Human Adipocytes” (Journal of the American Chemical Society, 2022).

Assays:
human ATGL = target: T1, human ATGL (Homo sapiens, UniProt Q96AD5); assay: TAG hydrolase assay, lysates of Expi293 cells overexpressing ATGL, purified CGI-58, radiolabeled triolein; type: biochemical; details: inhibition of TAG hydrolase activity of human ATGL, Expi293 lysates, purified CGI-58, radiolabeled triolein
T1 construct: host or cells: Expi293 cells, crude lysate
T1 sequence (Q96AD5 1-504): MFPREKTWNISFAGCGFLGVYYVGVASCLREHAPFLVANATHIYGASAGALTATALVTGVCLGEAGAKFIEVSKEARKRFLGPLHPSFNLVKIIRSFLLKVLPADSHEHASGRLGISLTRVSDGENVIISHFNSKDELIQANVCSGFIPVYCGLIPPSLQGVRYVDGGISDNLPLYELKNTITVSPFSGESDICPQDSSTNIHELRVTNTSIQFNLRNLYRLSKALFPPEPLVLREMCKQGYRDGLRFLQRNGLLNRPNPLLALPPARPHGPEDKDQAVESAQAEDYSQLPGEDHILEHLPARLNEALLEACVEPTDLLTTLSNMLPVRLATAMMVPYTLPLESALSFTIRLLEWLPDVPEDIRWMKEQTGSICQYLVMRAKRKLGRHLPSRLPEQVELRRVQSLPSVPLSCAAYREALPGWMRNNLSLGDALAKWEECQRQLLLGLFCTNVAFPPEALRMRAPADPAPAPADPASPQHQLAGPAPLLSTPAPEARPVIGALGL
Description: We previously developed Atglistatin (Ai), a selective inhibitor of mouse ATGL,[31],[32] which is ineffective against human ATGL.[17] Ai acts as a competitive inhibitor targeting the minimal active domain of ATGL ranging from aa 1–254.[33] This domain is highly conserved in different mammalian species (∼90% identity, Table 1) and comprises the patatin-like domain, eponymous for all members of the patatin-like phospholipase domain-containing (PNPLA) protein family.[34] We first investigated the species selectivity of Ai by performing TAG hydrolase assays[35] with lysates from Expi293 cells expressing ATGL orthologues of different species. The activity of ATGL is strongly stimulated by the co-activator protein comparative gene identification-58 (CGI-58, also known as α/β hydrolase domain containing 5, ABHD5)[36] and can be suppressed by the inhibitory protein G0/G1 switch 2 (G0S2).[37] We therefore determined ATGL activity in the presence and absence of mouse CGI-58, mouse G0S2, and Ai. As shown in Figure 1a–i, all ATGL orthologues were expressed, enzymatically active, stimulated by mouse CGI-58, and inactivated by mouse G0S2. Ai inhibited mouse (Figure 1a), rat (Figure 1b), goat (Figure 1c), dog (Figure 1e), and marmoset ATGL (Figure 1f), but not pig (Figure 1d), rhesus monkey (Figure 1g), or human ATGL (Figure 1h).
To develop an inhibitor for human ATGL, we screened compounds synthesized in the course of the development of Ai.[31] Screenings were performed in the presence of purified CGI-58 using cell lysates of Expi293 cells overexpressing ATGL as a source of enzymatic activity and radiolabeled triolein as substrate as described above (Figure 1). […] In an iterative optimization process, which encompassed the synthesis and testing of >150 compounds (not shown), we varied the nature of the top aryl ring (Figure 2a). Replacement of the top phenyl group with a pyridine moiety (compound 2) led to a significant improvement in inhibitor efficacy (IC50 = 3 μM), which we interpret as a result from a smaller angle between the 1,3-arrangement of the aryl- and the ester-substituents due to the shorter C–N bond length within the pyridine group. […] The introduction of a methoxy residue at this position finally led to compound NG-497 showing an IC50 value of 1 μM.
Experimental details, materials, and methods
Expression of recombinant ATGL constructs and preparation of cell lysates. Expi293 cells were cultivated in Expi293 Expression Medium (GIBCO, Thermo Fisher Scientific, Waltham, USA) at standard conditions (37°C, 5% CO2, 95% humidified atmosphere, 125 rpm). DNA constructs containing ATGL from different species and chimeric ATGL variants in pcDNA3.1(+)myc-His C Vector were obtained from BioCat GmbH (Heidelberg, Germany). Cells were transfected with ExpiFectamine293 Transfection Kit (GIBCO) in Opti-Mem reduced serum medium (GIBCO) according to the manufacturer’s instructions. After 48 h, cells were harvested by centrifugation and washed three times with PBS. Cells were disrupted in buffer A (0.25 M sucrose, 1 mM EDTA, 1 mM dithiothreitol, 20µg/ml leupeptin, 2 µg/ml antipain, 1 µg/ml pepstatin, pH 7.0) by sonication (Virsonic 475, Virtis, Gardiner, USA). Nuclei and debris were removed by centrifugation at 1,000 g and 4°C for 10 min. Protein concentrations were determined using Bio-Rad protein assay (Bio-Rad 785, Bio-Rad Laboratories, Munich, Germany) using BSA as standard.
Expression and purification of mouse CGI-58. CGI-58 was expressed and purified as described 1. In brief, the coding sequence of mouse Cgi-58 was cloned into pHis-Sumo and co-transformed with the plasmid pTf16 expressing the chaperone Tig into E. coli BL21(DE3). Cells were cultured overnight at 37°C and 180 rpm in the presence of 40 µg/ml kanamycin and 34 µg/ml chloramphenicol. Thereafter, cells were transferred into fresh LB medium, grown until OD600 of 0.6, and expression was induced […]
by the addition of 0.5 mM IPTG. […]

PNPLA1 = target: T2, PNPLA1 (Homo sapiens, UniProt Q8N8W4); assay: PNPLA1-dependent ω-O-acylceramide formation in HEK293T cells; type: cell-based; details: NG-497 40 µM, Orlistat 40 µM
T2 construct: expressed in transfected cells; host or cells: HEK293T cells
Procedure: Fig. S3: Investigation of off-target effects of NG-497 on structurally and functionally related lipid hydrolases. (a) PNPLA1-dependent formation of acylceramides was monitored in a cell-based assay in HEK293T cells. Experiments were performed in the presence or absence of NG-497 (40 µM) and the non-selective lipase inhibitor Orlistat (40 µM). Orlistat, but not NG-497, inhibited PNPLA1/CGI-58-dependent ω-O-acylceramide formation. (b-h) Enzymes were overexpressed in Expi293 cells and cell lysates were used as source of enzymatic activity. […] Experiments were performed in the presence or absence of NG-497 (100 µM) and the formation of reaction products was monitored. […]
Data were calculated relative to the basal activity detected in LacZ-transfected controls. […]
LPL activity was inhibited using an anti-LPL antibody. All data are presented as mean ± S.D. Statistical significance was determined via ANOVA followed by Bonferroni post hoc test ( ***, p < 0.001). […]
Released free fatty acids were quantified via NEFA C kit (Fujifilm Wako Chemicals, Neuss, Germany) and release of p-nitrophenol was measured at 405 nm. […] Cellular ω-O-acylceramide formation was monitored using [1-14C]linoleic acid as tracer. […] The activity of purified human pancreatic lipase (MilliporeSigma #SRE0028) was determined as previously described7 in the presence or absence of NG-497 (100µM) or Orlistat (20 µM). […]

T2 sequence (Q8N8W4 whole entry): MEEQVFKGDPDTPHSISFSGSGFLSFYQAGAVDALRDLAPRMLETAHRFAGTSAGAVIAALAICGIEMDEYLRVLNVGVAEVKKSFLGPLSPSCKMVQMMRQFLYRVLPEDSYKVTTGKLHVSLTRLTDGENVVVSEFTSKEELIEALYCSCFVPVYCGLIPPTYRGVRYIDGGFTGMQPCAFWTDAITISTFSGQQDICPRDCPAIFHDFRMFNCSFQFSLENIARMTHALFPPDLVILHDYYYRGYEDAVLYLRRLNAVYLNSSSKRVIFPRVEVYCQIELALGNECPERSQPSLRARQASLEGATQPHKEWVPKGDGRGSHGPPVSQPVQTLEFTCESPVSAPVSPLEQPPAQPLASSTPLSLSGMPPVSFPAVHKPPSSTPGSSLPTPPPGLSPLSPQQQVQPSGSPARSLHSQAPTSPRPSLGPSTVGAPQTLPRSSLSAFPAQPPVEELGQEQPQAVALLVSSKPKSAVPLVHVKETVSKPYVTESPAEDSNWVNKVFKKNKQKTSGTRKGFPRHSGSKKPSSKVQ

| Compound | IC50 (human ATGL) [µM] | PNPLA1/CGI-58-dependent ω-O-acylceramide formation (PNPLA1) |
| --- | --- | --- |
| CCOc1ccc(-c2cc(C)cc(C(=O)OC(C)C)n2)cc1 [compound 4] | 1.6 ± 0.1 | – |
| CCOC(=O)c1cccc(-c2ccc(OCC)cc2)c1 [compound 1] | 35 | – |
| CCOC(=O)c1cccc(-c2ccc(OCC)cc2)n1 [compound 2] | 3 | – |
| CCOc1ccc(-c2cccc(C(=O)OC(C)C)n2)cc1 [compound 3] | 1.8 | – |
| CCCCCCCCCCC[C@@H](C[C@@H]1OC(=O)[C@H]1CCCCCC)OC(=O)[C@H](CC(C)C)NC=O [Orlistat, reference compound] | – | inhibited |
